Source: US11267826B2, “Penicillin-binding protein inhibitors” (priority 2017, dated 2022)

How the values were obtained:
[1] = test system: hyper-permeable E. coli 901C; experiment: Broth microdilution MIC assay, hyper-permeable E. coli; type: cell-based; settings: Escherichia coli, read-out: E. coli 901C MIC
In short: (§1)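 Per CLSI: log-phase cultures (3-5 h, 37° C) seeded at 5×10^5 CFU/mL into cation-supplemented Mueller-Hinton broth containing 2-fold compound dilutions. After 16-20 h at 37° C, MIC taken visually as lowest growth-free well, for S. aureus ATCC 29213 and E. coli 901C.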

E. coli PBP3 = biological target: T1, E. coli PBP3 (Escherichia coli, UniProt P0AD68); experiment: Bocillin FL competition binding assay, PBP3; design: species or system Escherichia coli K12; settings: 15 min pre-incubation
T1 construct: 100 μg's of total membrane protein extracts containing PBPs; endogenous in cells; host or cells: Escherichia coli K12, membrane protein fraction
Procedure: (§2) To determine the ability of test compounds to bind Penicillin Binding Proteins (PBPs), a competition binding assay using Bocillin FL (fluorescent derivative of penicillin V) was adapted from the classical method used to assess PBP potency of beta-lactams.
(§3) Penicillin binding proteins were isolated from Escherichia coli K12 by growth of Escherichia coli K12 from a single colony in 4 L of Luria-Bertani (LB) broth at 35° C. and 250 rpm to an OD600 nm of 0.5. The cells were harvested by centrifugation at 7,000×g for 10 min. at 4° C. Cells were resuspended and washed in 50 mM potassium phosphate pH 7.5. The cells were re-suspended in sonication buffer [50 mM Tris-HCl pH 7.5, 1 mM MgCl2, 1 mM beta-mercaptoethanol, and 5 μg/mL DNAse I] and sonicated by 4 passes of 30 seconds at 45 W on ice. The sample was clarified by centrifugation at 3,000×g to remove cell debris and unbroken cells and supernatant containing the membrane proteins was retained. The membrane proteins including the PBPs were further purified from soluble constituents by an ultracentrifugation step at 100,000×g for 30 min. at 4° C. The membrane proteins are washed twice with 10 mM sodium phosphate pH 7, resuspended in a volume of 5 mL, quantitated by BCA assay, adjusted to […] and frozen at −80° C. until use.
(§4) The adapted Bocillin FL competition binding method described herein incorporates a 15 min. pre-incubation of test compound with isolated PBPs to attempt to balance the difference in mechanism of inhibition between beta-lactams (largely irreversible covalent bond to active site Serine) and the boron-containing PBP inhibitor test compounds (reversible covalent bond to active site Serine). Briefly, 50 μL reactions consisted of 100 μg's of total membrane protein extracts containing PBPs incubated with a dilution series of test compound ranging from 0.005 μg/mL to 2,480 μg/mL in 10 mM sodium phosphate pH7 containing 350 mM NaCl. Thirty minute reactions at 35° C. were initiated by addition of […] Bocillin FL, quenched by addition of SDS-PAGE loading buffer containing sodium dodecyl sulfate (SDS) and heated for 15 minutes at 95° C. to denature proteins in preparation for SDS-polyacrylamide gel electrophoresis. The Bocillin FL labeled PBPs are then separated by SDS-PAGE in Novex NuPage 10% Bis-Tris pre-cast gels (Invitrogen). The SDS-PAGE gel, post-electrophoresis, is then washed in water to remove excess SDS for 10 minutes at room temperature and placed on the scanning bed of a GE Healthcare/Amersham Biosciences Storm 860 fluorescence scanner. The excitation wavelength is in the blue spectrum at 450 nm and the emission at 520 nm is captured by the instrument. Effective PBP inhibitors are detected by a reduction in Bocillin FL labeling of the particular PBP over the dose range of test compound in a dose-responsive manner. High molecular weight PBP 1a/1b are not resolved by these gels, thus we report HMW PBP binding results in μg/mL for PBPs 1a/1b combined as well as for PBP2 and PBP3.
(§5) Representative results are shown in Table 2, where A represents a potency of >1000 μg/mL, B represents a potency between 64 and 1000 μg/mL inclusive, and C represents a potency of <64 μg/mL. NT=Not Tested.

E. coli K12 PBP1a/b = experiment: Bocillin FL competition binding assay, PBP1a/1b combined; design: species or system Escherichia coli K12; settings: 15 min pre-incubation, PBP 1a/1b combined
Procedure: as §2, §3, §4, §5

S. aureus ATCC 29213 = experiment: Broth microdilution MIC assay, S. aureus; type: cell-based; settings: Staphylococcus aureus, ATCC29213; broth microdilution, 16-20 hours at 37° C.; read-out: S. aureus 29213 MIC
In short: as §1

E. coli PBP2 = biological target: T2, E. coli PBP2 (Escherichia coli, UniProt P0AD65); experiment: Bocillin FL competition binding assay, PBP2; design: species or system Escherichia coli K12; settings: 15 min pre-incubation
T2 construct: 100 μg's of total membrane protein extracts containing PBPs; endogenous in cells; host or cells: Escherichia coli K12, membrane protein fraction
Procedure: as §2, §3, §4, §5

T1 sequence (P0AD68 1-577): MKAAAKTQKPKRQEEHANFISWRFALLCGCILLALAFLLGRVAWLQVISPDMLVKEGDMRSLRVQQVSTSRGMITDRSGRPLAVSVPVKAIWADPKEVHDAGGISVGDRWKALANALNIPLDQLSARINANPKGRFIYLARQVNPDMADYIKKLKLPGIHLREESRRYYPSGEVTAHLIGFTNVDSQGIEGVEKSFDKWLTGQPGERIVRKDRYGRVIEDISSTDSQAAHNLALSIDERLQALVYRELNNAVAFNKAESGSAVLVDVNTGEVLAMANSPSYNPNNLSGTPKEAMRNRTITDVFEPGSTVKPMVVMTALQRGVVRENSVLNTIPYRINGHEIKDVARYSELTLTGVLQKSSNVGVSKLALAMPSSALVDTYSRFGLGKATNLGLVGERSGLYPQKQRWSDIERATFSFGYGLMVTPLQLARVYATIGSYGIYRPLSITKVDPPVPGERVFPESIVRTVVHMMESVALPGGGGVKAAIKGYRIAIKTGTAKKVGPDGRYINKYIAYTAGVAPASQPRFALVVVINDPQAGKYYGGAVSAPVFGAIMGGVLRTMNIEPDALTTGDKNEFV
T2 sequence (P0AD65 whole entry): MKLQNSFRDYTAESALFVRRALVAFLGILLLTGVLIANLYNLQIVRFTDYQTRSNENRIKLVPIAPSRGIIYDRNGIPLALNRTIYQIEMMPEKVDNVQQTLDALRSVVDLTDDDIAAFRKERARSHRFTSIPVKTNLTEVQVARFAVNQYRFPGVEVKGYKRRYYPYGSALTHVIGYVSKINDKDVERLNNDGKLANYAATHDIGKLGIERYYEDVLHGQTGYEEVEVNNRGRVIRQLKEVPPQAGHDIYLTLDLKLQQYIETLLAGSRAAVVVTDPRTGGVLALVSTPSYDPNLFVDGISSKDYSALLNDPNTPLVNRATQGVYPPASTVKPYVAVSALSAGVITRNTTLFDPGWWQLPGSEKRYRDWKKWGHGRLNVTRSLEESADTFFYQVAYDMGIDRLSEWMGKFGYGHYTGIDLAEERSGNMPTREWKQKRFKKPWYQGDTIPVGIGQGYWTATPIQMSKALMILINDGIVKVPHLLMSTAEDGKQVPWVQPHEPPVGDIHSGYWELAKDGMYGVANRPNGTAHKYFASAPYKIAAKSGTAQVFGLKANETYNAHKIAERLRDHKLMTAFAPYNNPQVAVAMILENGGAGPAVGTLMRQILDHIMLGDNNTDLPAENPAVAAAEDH

| SMILES | MIC [1] [µg/mL] | E. coli PBP3 Potency (E. coli PBP3) | E. coli K12 PBP1a/b Potency (E. coli K12 PBP1a/b) | MIC (S. aureus ATCC 29213) [µg/mL] | E. coli PBP2 Potency (E. coli PBP2) |
| --- | --- | --- | --- | --- | --- |
| NCc1ccc(/C(=N/O)C(=O)N[C@H]2Cc3cccc(C(=O)O)c3OB2O)cc1 [Example 12, (R,Z)-3-(2-(4-(aminomethyl)phenyl)-2-(hydroxyimino)acetamido)-2-hydroxy-3,4-dihydro-2H-benzo[e][1,2]oxaborinine-8-carboxylic Acid] | > 128 | B (B represents a potency between 64 and 1000 μg/mL inclusive) | B (B represents a potency between 64 and 1000 μg/mL inclusive) | < 64 | B (B represents a potency between 64 and 1000 μg/mL inclusive) |
| Nc1nc(/C(=N/O)C(=O)N[C@H]2Cc3cccc(C(=O)O)c3OB2O)c(Cl)s1 [Example 17, (R,Z)-3-(2-(2-amino-5-chlorothiazol-4-yl)-2-(hydroxyimino)acetamido)-2-hydroxy-3,4-dihydro-2H-benzo[e][1,2]oxaborinine-8-carboxylic Acid] | 64 to 128 | B (B represents a potency between 64 and 1000 μg/mL inclusive) | B (B represents a potency between 64 and 1000 μg/mL inclusive) | < 64 | B (B represents a potency between 64 and 1000 μg/mL inclusive) |
| Nc1nc(/C(=N/O)C(=O)N[C@H]2Cc3cc(CO)cc(C(=O)O)c3OB2O)cs1 [Example 35, (R,Z)-3-(2-(2-aminothiazol-4-yl)-2-(hydroxyimino)acetamido)-2-hydroxy-6-(hydroxymethyl)-3,4-dihydro-2H-benzo[e][1,2]oxaborinine-8-carboxylic Acid] | > 128 | B (B represents a potency between 64 and 1000 μg/mL inclusive) | C (C represents a potency of <64 μg/mL) | 64 to 128 | A (A represents a potency of >1000 μg/mL) |
| Nc1nc(/C(=N/O)C(=O)N[C@H]2Cc3cc(CCC(=O)O)cc(C(=O)O)c3OB2O)cs1 [Example 37, (R,Z)-3-(2-(2-aminothiazol-4-yl)-2-(hydroxyimino)acetamido)-6-(2-carboxyethyl)-2-hydroxy-3,4-dihydro-2H-benzo[e][1,2]oxaborinine-8-carboxylic Acid] | < 64 | B (B represents a potency between 64 and 1000 μg/mL inclusive) | B (B represents a potency between 64 and 1000 μg/mL inclusive) | 64 to 128 | C (C represents a potency of <64 μg/mL) |
| Nc1nc(/C(=N/O)C(=O)N[C@H]2Cc3cc(F)c(F)c(C(=O)O)c3OB2O)cs1 [Example 41, (R,Z)-3-(2-(2-aminothiazol-4-yl)-2-(hydroxyimino)acetamido)-6,7-difluoro-2-hydroxy-3,4-dihydro-2H-benzo[e][1,2]oxaborinine-8-carboxylic Acid] | < 64 | B (B represents a potency between 64 and 1000 μg/mL inclusive) | B (B represents a potency between 64 and 1000 μg/mL inclusive) | 64 to 128 | B (B represents a potency between 64 and 1000 μg/mL inclusive) |
| COc1cc2c(c(C(=O)O)c1)OB(O)[C@@H](NC(=O)/C(=N\O)c1csc(N)n1)C2 [Example 42, (R,Z)-3-(2-(2-aminothiazol-4-yl)-2-(hydroxyimino)acetamido)-2-hydroxy-6-methoxy-3,4-dihydro-2H-benzo[e][1,2]oxaborinine-8-carboxylic Acid] | < 64 | C (C represents a potency of <64 μg/mL) | C (C represents a potency of <64 μg/mL) | < 64 | C (C represents a potency of <64 μg/mL) |
